Assays:
[1] = biological target: T1, Beta-adrenergic receptor kinase 1 (Homo sapiens, UniProt P25098); experiment: Inhibition of GRK-2 (unknown origin) preincubated with enzyme for 10 mins before adding peptide substrate and ATP measured after 1 hr by LANCE-TR-FRET assay
T1 sequence (P25098 whole entry): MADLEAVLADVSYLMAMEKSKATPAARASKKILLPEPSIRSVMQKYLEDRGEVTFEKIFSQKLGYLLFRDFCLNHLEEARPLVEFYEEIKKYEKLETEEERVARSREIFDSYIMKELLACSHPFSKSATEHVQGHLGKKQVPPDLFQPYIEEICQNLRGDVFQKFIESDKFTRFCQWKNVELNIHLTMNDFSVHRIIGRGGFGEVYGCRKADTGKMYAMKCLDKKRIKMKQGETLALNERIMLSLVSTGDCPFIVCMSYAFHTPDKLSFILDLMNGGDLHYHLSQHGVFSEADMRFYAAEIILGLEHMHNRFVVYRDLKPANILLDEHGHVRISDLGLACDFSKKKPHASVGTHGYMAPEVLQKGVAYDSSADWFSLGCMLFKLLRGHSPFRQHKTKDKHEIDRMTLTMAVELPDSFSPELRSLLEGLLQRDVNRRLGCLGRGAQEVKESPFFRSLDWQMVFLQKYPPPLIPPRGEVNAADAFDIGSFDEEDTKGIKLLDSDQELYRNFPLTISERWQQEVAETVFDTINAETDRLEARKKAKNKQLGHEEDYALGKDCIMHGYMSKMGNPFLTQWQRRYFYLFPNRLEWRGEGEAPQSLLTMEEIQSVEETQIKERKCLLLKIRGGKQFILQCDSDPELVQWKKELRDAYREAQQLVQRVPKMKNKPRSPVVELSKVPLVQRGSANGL

[2] = biological target: G protein-coupled receptor kinase 5 (Homo sapiens, UniProt P34947)
Description: Inhibition of GRK-5 (unknown origin) preincubated with enzyme for 10 mins before adding peptide substrate and ATP measured after 1 hr by LANCE-TR-FRET assay

[3] = biological target: Hepatocyte growth factor receptor (Homo sapiens, UniProt P08581); experiment: Inhibition of c-Met (unknown origin)
[4] = biological target: ALK tyrosine kinase receptor (Homo sapiens, UniProt Q9UM73); experiment: Inhibition of ALK (unknown origin)
Chain of ALK tyrosine kinase receptor (Q9UM73 whole entry): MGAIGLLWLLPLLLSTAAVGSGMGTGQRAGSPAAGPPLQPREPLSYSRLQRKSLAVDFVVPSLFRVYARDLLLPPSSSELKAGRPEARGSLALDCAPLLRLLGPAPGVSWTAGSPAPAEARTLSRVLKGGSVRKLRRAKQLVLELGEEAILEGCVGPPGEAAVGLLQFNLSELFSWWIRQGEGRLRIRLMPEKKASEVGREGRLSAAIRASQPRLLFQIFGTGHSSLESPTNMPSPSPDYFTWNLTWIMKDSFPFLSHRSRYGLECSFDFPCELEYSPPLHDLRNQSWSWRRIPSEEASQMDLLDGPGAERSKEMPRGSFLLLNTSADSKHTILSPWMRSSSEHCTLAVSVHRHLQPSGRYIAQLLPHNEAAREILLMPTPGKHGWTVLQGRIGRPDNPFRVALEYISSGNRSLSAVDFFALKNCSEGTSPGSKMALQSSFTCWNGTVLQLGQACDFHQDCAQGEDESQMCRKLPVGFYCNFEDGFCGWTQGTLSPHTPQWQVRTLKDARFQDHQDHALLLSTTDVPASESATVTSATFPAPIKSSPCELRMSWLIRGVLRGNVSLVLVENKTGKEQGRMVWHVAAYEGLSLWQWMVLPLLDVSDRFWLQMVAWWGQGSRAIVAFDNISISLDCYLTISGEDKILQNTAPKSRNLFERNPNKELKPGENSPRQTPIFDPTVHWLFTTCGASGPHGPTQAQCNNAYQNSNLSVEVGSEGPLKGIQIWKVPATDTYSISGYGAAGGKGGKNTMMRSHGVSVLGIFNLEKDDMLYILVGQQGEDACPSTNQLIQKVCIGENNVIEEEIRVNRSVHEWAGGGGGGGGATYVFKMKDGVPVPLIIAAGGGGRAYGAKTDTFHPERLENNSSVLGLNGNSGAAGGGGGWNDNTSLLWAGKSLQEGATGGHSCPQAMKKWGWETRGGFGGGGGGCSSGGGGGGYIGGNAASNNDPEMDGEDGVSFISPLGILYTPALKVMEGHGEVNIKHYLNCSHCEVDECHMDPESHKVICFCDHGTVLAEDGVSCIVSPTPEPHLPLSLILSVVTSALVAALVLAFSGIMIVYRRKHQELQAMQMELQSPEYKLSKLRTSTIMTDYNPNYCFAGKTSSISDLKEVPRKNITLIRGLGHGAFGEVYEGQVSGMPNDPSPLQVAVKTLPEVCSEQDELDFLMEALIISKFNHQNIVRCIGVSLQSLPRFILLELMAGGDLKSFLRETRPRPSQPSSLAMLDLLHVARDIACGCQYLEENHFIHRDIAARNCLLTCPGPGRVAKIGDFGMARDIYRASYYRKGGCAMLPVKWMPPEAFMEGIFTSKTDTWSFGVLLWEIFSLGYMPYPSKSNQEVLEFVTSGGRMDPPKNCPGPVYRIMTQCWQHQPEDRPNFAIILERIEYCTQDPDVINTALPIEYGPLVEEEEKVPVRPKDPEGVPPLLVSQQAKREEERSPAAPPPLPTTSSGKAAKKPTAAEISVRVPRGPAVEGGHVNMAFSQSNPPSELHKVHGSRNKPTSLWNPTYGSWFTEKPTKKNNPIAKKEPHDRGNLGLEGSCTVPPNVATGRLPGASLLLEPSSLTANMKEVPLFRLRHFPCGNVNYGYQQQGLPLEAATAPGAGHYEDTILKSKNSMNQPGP

Chain of G protein-coupled receptor kinase 5 (P34947 whole entry): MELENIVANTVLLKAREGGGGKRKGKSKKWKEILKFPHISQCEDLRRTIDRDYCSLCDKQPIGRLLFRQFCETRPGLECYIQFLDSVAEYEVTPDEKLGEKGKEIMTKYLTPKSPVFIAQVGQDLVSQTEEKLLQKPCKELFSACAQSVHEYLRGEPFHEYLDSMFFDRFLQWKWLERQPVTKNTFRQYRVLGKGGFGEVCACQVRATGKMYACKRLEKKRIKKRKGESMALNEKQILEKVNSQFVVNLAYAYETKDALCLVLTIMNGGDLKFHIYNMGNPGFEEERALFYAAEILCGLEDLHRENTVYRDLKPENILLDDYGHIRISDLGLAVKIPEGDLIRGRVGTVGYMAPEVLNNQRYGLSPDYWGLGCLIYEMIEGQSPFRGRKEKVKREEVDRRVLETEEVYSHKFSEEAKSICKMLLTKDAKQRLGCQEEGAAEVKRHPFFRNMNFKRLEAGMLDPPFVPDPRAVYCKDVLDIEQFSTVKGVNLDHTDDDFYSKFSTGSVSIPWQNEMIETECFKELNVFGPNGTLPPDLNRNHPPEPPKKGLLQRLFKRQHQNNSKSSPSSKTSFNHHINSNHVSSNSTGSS
Chain of Hepatocyte growth factor receptor (P08581 whole entry): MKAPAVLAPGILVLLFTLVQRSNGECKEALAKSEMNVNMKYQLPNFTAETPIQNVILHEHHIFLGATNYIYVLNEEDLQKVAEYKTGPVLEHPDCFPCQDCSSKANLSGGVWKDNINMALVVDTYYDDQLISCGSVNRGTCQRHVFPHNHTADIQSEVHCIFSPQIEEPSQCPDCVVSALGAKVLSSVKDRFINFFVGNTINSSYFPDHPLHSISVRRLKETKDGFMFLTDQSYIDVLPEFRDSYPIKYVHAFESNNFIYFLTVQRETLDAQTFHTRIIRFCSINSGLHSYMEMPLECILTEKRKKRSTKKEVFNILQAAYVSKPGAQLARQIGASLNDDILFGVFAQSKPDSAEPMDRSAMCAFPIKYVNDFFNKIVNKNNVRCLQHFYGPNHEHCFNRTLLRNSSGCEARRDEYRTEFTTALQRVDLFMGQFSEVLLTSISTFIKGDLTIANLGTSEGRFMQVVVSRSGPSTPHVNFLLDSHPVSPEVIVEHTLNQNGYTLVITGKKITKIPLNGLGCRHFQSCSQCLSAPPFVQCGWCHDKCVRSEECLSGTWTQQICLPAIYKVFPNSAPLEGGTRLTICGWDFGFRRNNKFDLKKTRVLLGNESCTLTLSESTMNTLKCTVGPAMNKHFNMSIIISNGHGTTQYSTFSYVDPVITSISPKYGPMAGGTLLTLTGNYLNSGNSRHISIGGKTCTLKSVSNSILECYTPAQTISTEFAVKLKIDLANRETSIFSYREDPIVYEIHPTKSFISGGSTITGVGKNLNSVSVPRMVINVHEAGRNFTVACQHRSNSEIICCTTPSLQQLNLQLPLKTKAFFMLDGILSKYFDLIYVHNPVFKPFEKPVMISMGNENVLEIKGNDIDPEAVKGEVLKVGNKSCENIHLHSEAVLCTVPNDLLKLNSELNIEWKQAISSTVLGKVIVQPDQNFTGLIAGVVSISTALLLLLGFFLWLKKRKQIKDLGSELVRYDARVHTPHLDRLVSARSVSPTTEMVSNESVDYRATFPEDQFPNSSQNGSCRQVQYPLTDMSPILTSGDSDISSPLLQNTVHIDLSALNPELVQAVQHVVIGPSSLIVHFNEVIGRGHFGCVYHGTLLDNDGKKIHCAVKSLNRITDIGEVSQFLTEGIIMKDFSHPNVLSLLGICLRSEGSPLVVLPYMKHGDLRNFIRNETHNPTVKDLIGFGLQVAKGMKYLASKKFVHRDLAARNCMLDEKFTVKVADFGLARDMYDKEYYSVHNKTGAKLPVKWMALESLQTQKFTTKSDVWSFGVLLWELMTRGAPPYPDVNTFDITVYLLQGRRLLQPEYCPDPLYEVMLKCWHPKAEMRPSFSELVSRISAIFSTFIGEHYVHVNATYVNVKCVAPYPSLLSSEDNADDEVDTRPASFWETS

Row | IC50 [1] | IC50 [2] | IC50 [3] | IC50 [4] | Compound
1 | 3.06 µM | 3.22 µM |  |  | CC(=O)Nc1ccc2oc(-c3cc(-c4cnn(C5CCNCC5)c4)cnc3N)nc2c1
2 | 6.32 µM |  |  |  | CNc1ccc2oc(-c3cc(-c4cnn(C5CCNCC5)c4)cnc3N)nc2c1
3 | 13 µM | 2.2 µM |  |  | Cc1c(O)ccc2nc(-c3cc(-c4cnn(C5CCNCC5)c4)cnc3N)oc12
4 | 2.14 µM |  |  |  | Cc1cc2nc(-c3cc(-c4cnn(C5CCNCC5)c4)cnc3N)oc2cc1O
5 | 6.2 µM | 1.94 µM |  |  | Nc1ccc2nc(-c3cc(-c4cnn(C5CCNCC5)c4)cnc3N)oc2c1
6 | 4.22 µM |  |  |  | Nc1ccc2oc(-c3cc(-c4cnn(C5CCNCC5)c4)cnc3N)nc2c1
7 | 8.27 µM | 1.76 µM |  |  | CN(C)c1ccc2oc(-c3cc(-c4cnn(C5CCNCC5)c4)cnc3N)nc2c1
8 | 3.19 µM |  |  |  | CCCNc1ccc2oc(-c3cc(-c4cnn(C5CCNCC5)c4)cnc3N)nc2c1
9 | 10.1 µM | 4.3 µM |  |  | Nc1ncc(-c2cnn(C3CCNCC3)c2)cc1-c1nc2ccc(N3CCCCC3)cc2o1
10 | 5.3 µM | 0.81 µM |  |  | Nc1ncc(-c2cnn(C3CCNCC3)c2)cc1-c1nc2ccc(N3CCOCC3)cc2o1
11 | 0.46 µM |  | 0.008 µM | 0.34 µM | Nc1ncc(-c2cnn(C3CCNCC3)c2)cc1-c1nc2ccc(N3CCCC3)cc2o1
12 | > 10 µM |  |  |  | CC(C)Nc1ccc2nc(-c3cc(-c4cnn(C5CCNCC5)c4)cnc3N)oc2c1
13 | 10 µM | 1.78 µM |  |  | Nc1ncc(-c2cnn(C3CCNCC3)c2)cc1-c1nc2ccc(-c3cn[nH]c3)cc2o1
14 | > 10 µM | 6.4 µM |  |  | CS(=O)(=O)Oc1ccc2nc(-c3cc(-c4cnn(C5CCNCC5)c4)cnc3N)oc2c1
15 | 0.85 µM |  |  |  | Nc1ncc(-c2cnn(C3CCNCC3)c2)cc1-c1nc2cc(N3CCCCC3)ccc2o1
16 | 6.43 µM | 1.05 µM |  |  | Nc1ncc(-c2cnn(C3CCNCC3)c2)cc1-c1nc2cc(N3CCOCC3)ccc2o1
17 | 1.65 µM |  |  |  | Nc1ncc(-c2cnn(C3CCNCC3)c2)cc1-c1nc2cc(N3CCCC3)ccc2o1

Second part, the compound before the results:

Row | Compound | IC50 [1] | IC50 [2] | IC50 [3] | IC50 [4]
18 | Nc1ncc(-c2cnn(C3CCNCC3)c2)cc1-c1nc2ccc(NC(=O)Nc3ccccc3)cc2o1 | 2.63 µM | 1.66 µM |  | 
19 | Nc1ncc(-c2cnn(C3CCNCC3)c2)cc1-c1nc2ccc(Nc3ccc(F)cc3)cc2o1 | 9.3 µM | 3.7 µM |  | 
20 | Cc1ccc(S(=O)(=O)NC(=O)Nc2ccc3nc(-c4cc(-c5cnn(C6CCNCC6)c5)cnc4N)oc3c2)cc1 | 8.3 µM |  |  | 
21 | Nc1ncc(-c2cnn(C3CCNCC3)c2)cc1-c1nc2ccc(O)c(-c3ccccc3)c2o1 | 9.7 µM |  |  | 
22 | Nc1ncc(-c2cnn(C3CCNCC3)c2)cc1-c1nc2ccc(Oc3ncccn3)cc2o1 | > 10 µM | 3.1 µM |  | 
23 | Nc1ncc(-c2cnn(C3CCNCC3)c2)cc1-c1nc2cc(Nc3ccccc3)ccc2o1 | 4.9 µM | 3.5 µM |  | 
24 | CCCCNc1ccc2oc(-c3cc(-c4cnn(C5CCNCC5)c4)cnc3N)nc2c1 | 5.52 µM |  |  | 
25 | Nc1ncc(-c2cnn(C3CCNCC3)c2)cc1-c1nc2cc(-c3ccccc3)ccc2o1 | > 10 µM | 4.5 µM |  | 
26 | Nc1ncc(-c2cnn(C3CCNCC3)c2)cc1-c1nc2ccc(Nc3cc(C(F)(F)F)cc(C(F)(F)F)c3)cc2o1 | 5.7 µM | 4.2 µM |  | 
27 | Nc1ncc(-c2cnn(C3CCNCC3)c2)cc1-c1nc2ccc(Nc3c(F)cccc3F)cc2o1 | 11.5 µM | 4.7 µM |  | 
28 | Nc1ncc(-c2cnn(C3CCNCC3)c2)cc1-c1nc2ccc(Nc3cc(F)cc(F)c3)cc2o1 | 2.26 µM | 1.25 µM |  | 
29 | Nc1ncc(-c2cnn(C3CCNCC3)c2)cc1-c1nc2ccc(OCc3ccccc3)cc2o1 | > 10 µM | 6.9 µM |  | 
30 | Nc1ncc(-c2cnn(C3CCNCC3)c2)cc1-c1nc2ccc(Oc3ccccc3)cc2o1 | > 10 µM | 4 µM |  | 
31 | Nc1ncc(-c2cnn(C3CCNCC3)c2)cc1-c1nc2ccc(-c3ccc4[nH]ncc4c3)cc2o1 | 4.05 µM | 1.14 µM |  | 
32 | Nc1ncc(-c2cnn(C3CCNCC3)c2)cc1-c1nc2ccc(OCc3ccc(F)cc3)cc2o1 | 11.9 µM | 1.31 µM |  | 
33 | Nc1ncc(-c2cnn(C3CCNCC3)c2)cc1-c1nc2ccc(Oc3ccc(F)cc3)cc2o1 | > 10 µM | 7.9 µM |  | 
34 | Nc1ncc(-c2cnn(C3CCNCC3)c2)cc1-c1nc2ccc(Oc3cc(Cl)ccn3)cc2o1 | 17 µM | 5.7 µM |  | 
35 | N#Cc1ccnc(Oc2ccc3nc(-c4cc(-c5cnn(C6CCNCC6)c5)cnc4N)oc3c2)c1 | 8.1 µM | 3.6 µM |  | 

Row | Compound | IC50 [1] | IC50 [2] | IC50 [3] | IC50 [4]
36 | Nc1ncc(-c2cnn(C3CCNCC3)c2)cc1-c1nc2ccc(Oc3ccc(-c4ccccc4)nn3)cc2o1 | 3.8 µM | 1.2 µM |  | 
37 | Nc1ncc(-c2cnn(C3CCNCC3)c2)cc1-c1nc2ccc(Nc3ccccn3)cc2o1 | 6.05 µM | 4.2 µM |  | 
38 | COc1ccc(N(C(=O)Nc2ccc3nc(-c4cc(-c5cnn(C6CCNCC6)c5)cnc4N)oc3c2)c2ccccc2)cc1 | 0.66 µM |  |  | 
39 | Nc1ncc(-c2cnn(C3CCNCC3)c2)cc1-c1nc2ccc(NC(=O)Nc3ccc(F)cc3)cc2o1 | 1.72 µM |  |  | 
40 | Nc1ncc(-c2cnn(C3CCNCC3)c2)cc1-c1nc2ccc(NC(=O)c3ccccc3)cc2o1 | 3.19 µM | 3.49 µM |  | 
41 | Nc1ncc(-c2cnn(C3CCNCC3)c2)cc1-c1nc2ccc(NC(=O)c3ccc(C(F)(F)F)cc3)cc2o1 | 3.2 µM | 2.83 µM |  | 
42 | Nc1ncc(-c2cnn(C3CCNCC3)c2)cc1-c1nc2ccc(NC(=O)c3ccc(F)cc3)cc2o1 | 0.96 µM |  |  | 
43 | COc1ccc(C(=O)Nc2ccc3nc(-c4cc(-c5cnn(C6CCNCC6)c5)cnc4N)oc3c2)cc1 | 3.97 µM | 2.09 µM |  | 
44 | COc1ccc(-c2ccc3nc(-c4cc(-c5cnn(C6CCNCC6)c5)cnc4N)oc3c2)cc1 | 3.06 µM | 3.22 µM |  | 
45 | CC(C)NC(=O)c1cc2nc(-c3cc(-c4cnn(C5CCNCC5)c4)cnc3N)oc2cc1O | > 10 µM |  |  | 
46 | CN(C)COc1cccc(-c2cnc(N)c(-c3nc4cccc(-c5ccccn5)c4o3)c2)c1 | > 10 µM | 5.1 µM |  | 
47 | Nc1ncc(-c2cccc(C(=O)NCCN3CCOCC3)c2)cc1-c1nc2cccc(-c3ccccn3)c2o1 | > 10 µM |  |  | 
48 | Nc1ncc(-c2cnn(C3CCNCC3)c2)cc1-c1nc2ccc(O)c(-c3ccc4cn[nH]c4c3)c2o1 | 6.5 µM |  |  | 
49 | COc1ccc(-c2c(O)ccc3nc(-c4cc(-c5cnn(C6CCNCC6)c5)cnc4N)oc23)cc1 | > 10 µM |  |  | 
50 | CCc1ccc2nc(-c3cc(-c4cnn(C5CCNCC5)c4)cnc3N)oc2c1O | > 10 µM | 3.4 µM |  | 
51 | COc1ccc2nc(-c3cc(-c4cnn(C5CCNCC5)c4)cnc3N)oc2c1-c1ccc2cn[nH]c2c1 | 9.16 µM | 2.21 µM |  | 
52 | CN(c1ccccc1)c1ccc2oc(-c3cc(-c4cnn(C5CCNCC5)c4)cnc3N)nc2c1 | 13 µM | 5.05 µM |  | 
